According to US20260151516A1, “NEW PET TRACER FOR IMAGING OF THE FUNCTIONAL HEPATIC RESERVE” (Medizinische Universität Innsbruck, priority 2022, published 2026):
Values joined by “and” are separate entries in the source; they are usually repeats but may differ in a detail not shown here. Equal entries are not always repeated.

What was measured:
[1] = Ligand stability in human blood serum (radio-HPLC); format: in vitro ADME; conditions: for Serum stability (% of intact ligand): 37° C.
Method: (§1) Ligand stability in human blood serum (n=2) and PBS (n=1) was determined for different time points (2 min, 30 min, 60 min, 120 min). Therefore, approx. 5 MBq of radioligand was added to 1 mL of fresh human serum or PBS and incubated at 37° C. At each given time point 100 μL of the mixture were transferred to a 1.5 mL Eppendorf tube containing 100 μL of acetonitrile. The vial was vortexed and centrifuged for 2 min at 14,000 rpm before 100 μL of the supernatant were diluted with 200 μL of water and injected into analytical radio-HPLC. The PBS solution was directly injected into the radio-HPLC. Ligand stability was determined by integrating the areas of the signals in the radio chromatogram in relation to the signal of the intact ligand.

[2] = Biodistribution studies incl. blocking experiments; format: in vivo; conditions: healthy BALB/c mice
Method: For biodistribution studies 6 week old female BALB/c mice (n=3) were injected with 0.1 nmol (100 μL, approx. 1 MBq) of labelled compound via the lateral tail vein and sacrificed after 10, 30, or 60 min by cervical dislocation. The mice were dissected, blood and organs (spleen, pancreas, stomach, intestine, liver, kidney, heart, lung, muscle, and bone) were weighed, and their activity measured in a γ-counter. For blocking experiments, mice were co-injected with 100 μL of a 277 mM Galactose/PBS solution. In case of [^68Ga]Ga-TRAP-GalNAc a 277 mM N-Acetylgalactose solution was used.

[3] = Partition coefficient (log D), n-Octanol/PBS; format: physicochemical
Method: The vials were vortexed for 5 min at 1,500 rpm and then centrifuged for 5 min at 20,000 rcf (Eppendorf Centrifuge 5424).

human serum = assay: Protein binding in fresh human serum (Sephadex MicroSpin G-50 columns); format: in vitro ADME; conditions: 37° C.
Method: Protein binding was determined for different time points (2 min, 30 min, 60 min, 120 min) in triplicates using Sephadex MicroSpin G-50 columns (GE-Healthcare, Chicago, Illinois, USA). The columns were spun initially at 20,000 rcf for 1 min to remove the storage buffer. Then approx. 5 MBq of radioligand was added to 1 mL of fresh human serum and incubated at 37° C. At each given timepoint 25 μL of the mixture was loaded on to the column, which was then spun at 20,000 rcf for 1 min. The activity content on the column (free radioligand) and in the filtrate (protein bound fraction) was quantified in a γ-counter.

[4] = Ligand stability in PBS (radio-HPLC); format: physicochemical; conditions: 37° C., over the time course of 2 h
Method: as §1

[5] = 30 min p.i., blocking with 277 mM N-Acetylgalactose
[6] = 30 min p.i., blocking with 277 mM galactose

CC(=O)N[C@H]1[C@H](OCCOCCOCCn2cc(CNC(=O)CCP(=O)([O-])CN3CCN(CP(=O)([O-])CCC(=O)NCc4cn(CCOCCOCCO[C@@H]5O[C@H](CO)[C@H](O)[C@H](O)[C@H]5NC(C)=O)nn4)CCN(CP(=O)([O-])CCC(=O)NCc4cn(CCOCCOCCO[C@@H]5O[C@H](CO)[C@H](O)[C@H](O)[C@H]5NC(C)=O)nn4)CC3)nn2)O[C@H](CO)[C@H](O)[C@@H]1O.[68Ga+3] [[^68Ga]Ga-TRAP-GalNAc]
Serum stability (% of intact ligand) ([1]; 120 min): high serum stability | Serum stability (% of intact ligand) ([1]; 120 min, listed as [^68Ga]Ga-TRAP-GalNAC): 99.7 ± 0.1% | Liver uptake compared with [^99mTc]Tc-GSA [2]: comparable | Biodistribution Blood ([2]; 10 min p.i.): 0.64 ± 0.04 % ID/g | Biodistribution Femur ([2]; 10 min p.i.): 0.27 ± 0.04 % ID/g | Biodistribution Heart ([2]; 10 min p.i.): 0.69 ± 0.12 % ID/g | Biodistribution Intestine ([2]; 10 min p.i.): 0.63 ± 0.06 % ID/g | Biodistribution Kidneys ([2]; 10 min p.i.): 1.43 ± 0.10 % ID/g | Biodistribution Liver ([2]; 10 min p.i.): 69.1 ± 4.18 % ID/g | Biodistribution Lung ([2]; 10 min p.i.): 0.92 ± 0.11 % ID/g | Biodistribution Muscle ([2]; 10 min p.i.): 0.55 ± 0.03 % ID/g | Biodistribution Pancreas ([2]; 10 min p.i.): 0.92 ± 0.17 % ID/g | Biodistribution Spleen ([2]; 10 min p.i.): 0.24 ± 0.05 % ID/g | Biodistribution Stomach ([2]; 10 min p.i.): 0.86 ± 0.15 % ID/g | Biodistribution Blood ([2]; 30 min p.i.): 0.57 ± 0.09 % ID/g | Biodistribution Femur ([2]; 30 min p.i.): 0.47 ± 0.12 % ID/g | Biodistribution Heart ([2]; 30 min p.i.): 0.73 ± 0.02 % ID/g | Biodistribution Intestine ([2]; 30 min p.i.): 4.16 ± 0.35 % ID/g | Biodistribution Kidneys ([2]; 30 min p.i.): 1.68 ± 0.30 % ID/g | Biodistribution Liver ([2]; 30 min p.i.): 63.88 ± 2.23 % ID/g | Biodistribution Lung ([2]; 30 min p.i.): 1.02 ± 0.06 % ID/g | Biodistribution Muscle ([2]; 30 min p.i.): 0.74 ± 0.08 % ID/g | Biodistribution Pancreas ([2]; 30 min p.i.): 1.50 ± 0.49 % ID/g | Biodistribution Spleen ([2]; 30 min p.i.): 0.20 ± 0.02 % ID/g | Biodistribution Stomach ([2]; 30 min p.i.): 1.60 ± 0.56 % ID/g | Biodistribution Blood [2, 5]: 0.80 ± 0.04 % ID/g | Biodistribution Femur [2, 5]: 0.32 ± 0.12 % ID/g | Biodistribution Heart [2, 5]: 0.31 ± 0.02 % ID/g | Biodistribution Intestine [2, 5]: 0.71 ± 0.06 % ID/g | Biodistribution Kidneys [2, 5]: 2.86 ± 0.21 % ID/g | Biodistribution Liver [2, 5]: 10.98 ± 0.44 % ID/g | Biodistribution Lung [2, 5]: 0.73 ± 0.02 % ID/g | Biodistribution Muscle [2, 5]: 0.28 ± 0.05 % ID/g | Biodistribution Pancreas [2, 5]: 0.39 ± 0.04 % ID/g | Biodistribution Spleen [2, 5]: 0.24 ± 0.01 % ID/g | Biodistribution Stomach [2, 5]: 0.53 ± 0.06 % ID/g | Biodistribution Blood ([2]; 60 min p.i.): 0.23 ± 0.02 % ID/g | Biodistribution Femur ([2]; 60 min p.i.): 0.49 ± 0.11 % ID/g | Biodistribution Heart ([2]; 60 min p.i.): 0.82 ± 0.27 % ID/g | Biodistribution Intestine ([2]; 60 min p.i.): 4.53 ± 0.35 % ID/g | Biodistribution Kidneys ([2]; 60 min p.i.): 0.79 ± 0.07 % ID/g | Biodistribution Liver ([2]; 60 min p.i.): 54.20 ± 7.95 % ID/g | Biodistribution Lung ([2]; 60 min p.i.): 0.71 ± 0.10 % ID/g | Biodistribution Muscle ([2]; 60 min p.i.): 0.57 ± 0.01 % ID/g | Biodistribution Pancreas ([2]; 60 min p.i.): 0.76 ± 0.11 % ID/g | Biodistribution Spleen ([2]; 60 min p.i.): 0.17 ± 0.05 % ID/g | Biodistribution Stomach ([2]; 60 min p.i.): 0.54 ± 0.02 % ID/g | logD [3]: −4.2±0.08 | Protein binding (%) (human serum; 30 min): 24.3 ± 5.2%

O=C(CCP(=O)([O-])CN1CCN(CP(=O)([O-])CCC(=O)NCc2cn(CCOCCOCCO[C@@H]3O[C@H](CO)[C@H](O)[C@H](O)[C@H]3O)nn2)CCN(CP(=O)([O-])CCC(=O)NCc2cn(CCOCCOCCO[C@@H]3O[C@H](CO)[C@H](O)[C@H](O)[C@H]3O)nn2)CC1)NCc1cn(CCOCCOCCO[C@@H]2O[C@H](CO)[C@H](O)[C@H](O)[C@H]2O)nn1.[68Ga+3] [[^68Ga]Ga-TRAP-Galactan]
Serum stability (% of intact ligand) ([1]; 2 min): 97.7 ± 0.3% | Serum stability (% of intact ligand) ([1]; 30 min): 97.6 ± 0.2% | Serum stability (% of intact ligand) ([1]; 60 min): 97.6 ± 0.1% | Serum stability (% of intact ligand) ([1]; 120 min): 97.9 ± 0.1% | Stability in human blood serum (% intact tracer) ([1]; over the time course of 2 h): > 98% | Biodistribution Blood ([2]; 10 min p.i.): 3.66 ± 0.2 % ID/g | Biodistribution Femur ([2]; 10 min p.i.): 0.85 ± 0.33 % ID/g | Biodistribution Heart ([2]; 10 min p.i.): 1.28 ± 0.06 % ID/g | Biodistribution Intestine ([2]; 10 min p.i.): 1.24 ± 0.05 % ID/g | Biodistribution Kidneys ([2]; 10 min p.i.): 7.4±2.1 % ID/g and 7.39 ± 2.1 % ID/g | Biodistribution Liver ([2]; 10 min p.i.): 24.6±1.6 % ID/g | Biodistribution Lung ([2]; 10 min p.i.): 2.31 ± 0.17 % ID/g | Biodistribution Muscle ([2]; 10 min p.i.): 0.91 ± 0.08 % ID/g | Biodistribution Pancreas ([2]; 10 min p.i.): 0.87 ± 0.01 % ID/g | Biodistribution Spleen ([2]; 10 min p.i.): 0.84 ± 0.08 % ID/g | Biodistribution Stomach ([2]; 10 min p.i.): 1.22 ± 0.20 % ID/g | Biodistribution Blood ([2]; 30 min p.i.): 1.6 ± 0.11 % ID/g | Biodistribution Femur ([2]; 30 min p.i.): 0.32 ± 0.05 % ID/g | Biodistribution Heart ([2]; 30 min p.i.): 0.65 ± 0.08 % ID/g | Biodistribution Intestine ([2]; 30 min p.i.): 2.18 ± 0.10 % ID/g | Biodistribution Kidneys ([2]; 30 min p.i.): 4.33 ± 0.35 % ID/g | Biodistribution Liver ([2]; 30 min p.i.): 29.7±1.7 % ID/g | Biodistribution Lung ([2]; 30 min p.i.): 1.09 ± 0.03 % ID/g | Biodistribution Muscle ([2]; 30 min p.i.): 0.37 ± 0.02 % ID/g | Biodistribution Pancreas ([2]; 30 min p.i.): 0.53 ± 0.01 % ID/g | Biodistribution Spleen ([2]; 30 min p.i.): 0.42 ± 0.07 % ID/g | Biodistribution Stomach ([2]; 30 min p.i.): 1.00 ± 0.27 % ID/g | Biodistribution Blood [2, 6]: 1.35 ± 0.52 % ID/g | Biodistribution Femur [2, 6]: 0.27 ± 0.09 % ID/g | Biodistribution Heart [2, 6]: 0.44 ± 0.09 % ID/g | Biodistribution Intestine [2, 6]: 1.02 ± 0.18 % ID/g | Biodistribution Kidneys [2, 6]: 3.70 ± 0.53 % ID/g | Biodistribution Liver [2, 6]: 10.6 ± 1.4 % ID/g | Biodistribution Lung [2, 6]: 0.86 ± 0.14 % ID/g | Biodistribution Muscle [2, 6]: 0.30 ± 0.04 % ID/g | Biodistribution Pancreas [2, 6]: 0.37 ± 0.04 % ID/g | Biodistribution Spleen [2, 6]: 0.29 ± 0.03 % ID/g | Biodistribution Stomach [2, 6]: 0.49 ± 0.07 % ID/g | Biodistribution Blood ([2]; 60 min p.i.): 0.3±0.09 % ID/g | Biodistribution Femur ([2]; 60 min p.i.): 0.13 ± 0.03 % ID/g | Biodistribution Heart ([2]; 60 min p.i.): 0.16 ± 0.02 % ID/g | Biodistribution Intestine ([2]; 60 min p.i.): 2.8±0.2 % ID/g and 2.80 ± 0.24 % ID/g | Biodistribution Kidneys ([2]; 60 min p.i.): 1.72 ± 0.17 % ID/g | Biodistribution Liver ([2]; 60 min p.i.): 25.0 ± 1.1 % ID/g | Biodistribution Lung ([2]; 60 min p.i.): 0.32 ± 0.05 % ID/g | Biodistribution Muscle ([2]; 60 min p.i.): 0.15 ± 0.03 % ID/g | Biodistribution Pancreas ([2]; 60 min p.i.): 0.16 ± 0.02 % ID/g | Biodistribution Spleen ([2]; 60 min p.i.): 0.17 ± 0.07 % ID/g | Biodistribution Stomach ([2]; 60 min p.i.): 0.31 ± 0.21 % ID/g | Stability in PBS (% intact tracer) [4]: > 99% | logD [3]: −4.26±0.08 | Protein binding (%) (human serum; 2 min): 8.2±3.4% | Protein binding (%) (human serum; 30 min): 6.4 ± 1.8% | Protein binding (%) (human serum; 60 min): 12.0 ± 3.1% | Protein binding (%) (human serum; 120 min): 11.6±2.2%
